Measured values: EP0908457B1, “3-(1,2-benzisothiazol- and isoxazol-5-Y1)-2,4(1H,3H)-pyrimidinedione or thione and 3-(1,2-benzisothiazol- and isoxazol-5-y1)-4(3H)-pyrimidinone or thione herbicidal agents” (BASF AKTIENGESELLSCHAFT, priority 1997, dated 1999)

Legend:
[1] = test system: Echinochloa oryzoides (Ard.) Fritsch.; experiment: Preemergence weed control under flooded paddy conditions, ECHORC (Watergrass (Calif.)); type: in vivo; conditions: preemergence, flooded paddy, rated 3-4 weeks after treatment
[2] = test system: Cyperus iria; experiment: Preemergence weed control under flooded paddy conditions, CYPIR (Rice Flatsedge); type: in vivo; conditions: preemergence, flooded paddy, rated 3-4 weeks after treatment
[3] = test system: Cyperus serotinus, Rottb.; experiment: Preemergence weed control under flooded paddy conditions, CYPSE (Flatsedge); type: in vivo; conditions: preemergence, rated 3-4 weeks after treatment
[4] = test system: Monochoria vaginalis, Presl.; experiment: Preemergence weed control under flooded paddy conditions, MOOVA (Monochoria); type: in vivo; conditions: preemergence, flooded paddy, rated 3-4 weeks after treatment
[5] = test system: Sagittaria pygmaea, L.; experiment: Preemergence weed control under flooded paddy conditions, SAGPY (Arrowhead (Pygmaea)); type: in vivo; conditions: preemergence, flooded paddy, rated 3-4 weeks after treatment
[6] = test system: Oryza sativa, (L.) Tebonnet; experiment: Rice tolerance to post-transplant applications under flooded paddy conditions (Example 187), ORYSAT (Rice, Tebonnet); conditions: rated 3-4 weeks after treatment
Also: meaning of each grade not given here.

SMILES	herbicidal effect rating, ECHORC ([1]; Rate 0.0320 kg/ha)	herbicidal effect rating, ECHORC ([1]; Rate 0.0620 kg/ha)	herbicidal effect rating, ECHORC ([1]; Rate 0.1250 kg/ha)	herbicidal effect rating, ECHORC ([1]; Rate 0.2500 kg/ha)	herbicidal effect rating, CYPIR ([2]; Rate 0.0320 kg/ha)	herbicidal effect rating, CYPIR ([2]; Rate 0.0620 kg/ha)	herbicidal effect rating, CYPIR ([2]; Rate 0.1250 kg/ha)	herbicidal effect rating, CYPIR ([2]; Rate 0.2500 kg/ha)	herbicidal effect rating, CYPSE ([3]; Rate 0.0320 kg/ha)	herbicidal effect rating, CYPSE ([3]; Rate 0.0620 kg/ha)	herbicidal effect rating, CYPSE ([3]; Rate 0.1250 kg/ha)	herbicidal effect rating, CYPSE ([3]; Rate 0.2500 kg/ha)	herbicidal effect rating, MOOVA ([4]; Rate 0.0320 kg/ha)	herbicidal effect rating, MOOVA ([4]; Rate 0.0620 kg/ha)	herbicidal effect rating, MOOVA ([4]; Rate 0.1250 kg/ha)	herbicidal effect rating, MOOVA ([4]; Rate 0.2500 kg/ha)	herbicidal effect rating, SAGPY ([5]; Rate 0.0320 kg/ha)	herbicidal effect rating, SAGPY ([5]; Rate 0.0620 kg/ha)	herbicidal effect rating, SAGPY ([5]; Rate 0.1250 kg/ha)	herbicidal effect rating, SAGPY ([5]; Rate 0.2500 kg/ha)	further results
C#CC(C)OC(=O)C(C)(C)Oc1ccc(C)cc1-c1nsc2ccc(-n3c(=O)cc(C(F)(F)F)n(C)c3=O)cc12 (stereo not drawn) [Example 531, Propionic acid, 2-{{2-{5-[3,6-dihydro-3-methyl-2,6-dioxo-4-(trifluoromethyl)-1(2H)-pyrimidinyl]-1,2-benzisothiazol-3-yl}-p-tolyl}oxy}-2-methyl-, 1-methyl-2-propynyl ester]	9.0	9.0	9.0	9.0	0.0	0.0	4.0	4.0	0.0	0.0	3.0	3.0	9.0	9.0	9.0	9.0	0.0	0.0	3.0	3.0	herbicidal effect rating ORYSAT ([6]; Rate 0.0320 kg/ha): 0.0; herbicidal effect rating ORYSAT ([6]; Rate 0.0620 kg/ha): 0.0; herbicidal effect rating ORYSAT ([6]; Rate 0.1250 kg/ha): 3.0; herbicidal effect rating ORYSAT ([6]; Rate 0.2500 kg/ha): 9.0
COCC(C)OC(=O)C(C)(C)Oc1ccc(C)cc1-c1nsc2ccc(-n3c(=O)cc(C(F)(F)F)n(C)c3=O)cc12 (stereo not drawn) [Example 532, Propionic acid, 2-{{2-{5-[3,6-dihydro-3-methyl-2,6-dioxo-4-(trifluoromethyl)-1(2H)-pyrimidinyl]-1,2-benzisothiazol-3-yl}-p-tolyl}oxy}-2-methyl-, 2-methoxy-1-methylethyl ester]	9.0	9.0	9.0	9.0	9.0	9.0	9.0	9.0	0.0	0.0	0.0	0.0	9.0	9.0	9.0	9.0	0.0	0.0	0.0	9.0	herbicidal effect rating ORYSAT ([6]; Rate 0.0320 kg/ha): 0.0; herbicidal effect rating ORYSAT ([6]; Rate 0.0620 kg/ha): 0.0; herbicidal effect rating ORYSAT ([6]; Rate 0.1250 kg/ha): 0.0; herbicidal effect rating ORYSAT ([6]; Rate 0.2500 kg/ha): 2.0
Cc1ccc(OCC(=O)OCCC2OCC(C)(C)CO2)c(-c2nsc3ccc(-n4c(=O)cc(C(F)(F)F)n(C)c4=O)cc23)c1 [Example 533, Acetic acid, {{2-{5-[3,6-dihydro-3-methyl-2,6-dioxo-4-(trifluoromethyl)-1(2H)-pyrimidinyl]-1,2-benzisothiazol-3-yl}-p-tolyl}oxy}-, 2-(5,5-dimethyl-m-dioxan-2-yl)ethyl ester]	7.5	9.0	9.0	9.0	2.0	3.0	4.0	9.0	0.0	0.0	3.0	9.0	9.0	9.0	9.0	9.0	0.0	0.0	0.0	4.0	herbicidal effect rating ORYSAT ([6]; Rate 0.0320 kg/ha): 3.0; herbicidal effect rating ORYSAT ([6]; Rate 0.0620 kg/ha): 4.5; herbicidal effect rating ORYSAT ([6]; Rate 0.1250 kg/ha): 5.0; herbicidal effect rating ORYSAT ([6]; Rate 0.2500 kg/ha): 8.0
COCCCOCCCOC(=O)COc1ccc(C)cc1-c1nsc2ccc(-n3c(=O)cc(C(F)(F)F)n(C)c3=O)cc12 [Example 536, Acetic acid, {{2-{5-[3,6-dihydro-3-methyl-2,6-dioxo-4-(trifluoromethyl)-1(2H)-pyrimidinyl]-1,2-benzisothiazol-3-yl}-p-tolyl}oxy}-, 3-(3-methoxypropoxy)propyl ester]	3.0	4.0	5.0	9.0	0.0	0.0	0.0	4.0	0.0	0.0	0.0	0.0	9.0	9.0	9.0	9.0	0.0	0.0	0.0	0.0	herbicidal effect rating ORYSAT ([6]; Rate 0.0320 kg/ha): 0.0; herbicidal effect rating ORYSAT ([6]; Rate 0.0620 kg/ha): 0.0; herbicidal effect rating ORYSAT ([6]; Rate 0.1250 kg/ha): 1.0; herbicidal effect rating ORYSAT ([6]; Rate 0.2500 kg/ha): 4.0
Cc1ccc(OCC(=O)c2ccc(Cl)cc2)c(-c2nsc3ccc(-n4c(=O)cc(C(F)(F)F)n(C)c4=O)cc23)c1 [Example 538, 2,4(1H,3H)-Pyrimidinedione, 3-{3-{6-[(p-chlorophenacyl)oxy]-m-tolyl}-1,2-benzisothiazol-5-yl}-1-methyl-6-(trifluoromethyl)-]	2.1	3.4	4.7	9.0	0.0	0.0	0.0	0.0	0.0	0.0	0.0	0.0	9.0	9.0	9.0	9.0	0.0	0.0	0.0	0.0	herbicidal effect rating, ECHORC ([1]; Rate 0.5000 kg/ha): 9.0; herbicidal effect rating, CYPIR ([2]; Rate 0.5000 kg/ha): 9.0; herbicidal effect rating, CYPSE ([3]; Rate 0.5000 kg/ha): 0.0; herbicidal effect rating, MOOVA ([4]; Rate 0.5000 kg/ha): 9.0; herbicidal effect rating, SAGPY ([5]; Rate 0.5000 kg/ha): 0.0; herbicidal effect rating ORYSAT ([6]; Rate 0.0320 kg/ha): 0.0; herbicidal effect rating ORYSAT ([6]; Rate 0.0620 kg/ha): 0.0; herbicidal effect rating ORYSAT ([6]; Rate 0.1250 kg/ha): 1.0; herbicidal effect rating ORYSAT ([6]; Rate 0.2500 kg/ha): 1.0; herbicidal effect rating ORYSAT ([6]; Rate 0.5000 kg/ha): 1.0
Cc1ccc(OCC(N)=O)c(-c2nsc3ccc(-n4c(=O)cc(C(F)(F)F)n(C)c4=O)cc23)c1 [Example 539, Acetamide, 2-{{2-{5-[3,6-dihydro-3-methyl-2,6-dioxo-4-(trifluoromethyl)-1(2H)-pyrimidinyl]-1,2-benzisothiazol-3-yl}-p-tolyl}oxy}-]	2.1	3.0	4.7	7.0	0.0	2.0	6.0	8.0	0.0	0.0	0.0	0.0	8.0	9.0	9.0	9.0	0.0	0.0	1.0	4.0	herbicidal effect rating, ECHORC ([1]; Rate 0.5000 kg/ha): 9.0; herbicidal effect rating, CYPIR ([2]; Rate 0.5000 kg/ha): 9.0; herbicidal effect rating, CYPSE ([3]; Rate 0.5000 kg/ha): 2.0; herbicidal effect rating, MOOVA ([4]; Rate 0.5000 kg/ha): 9.0; herbicidal effect rating, SAGPY ([5]; Rate 0.5000 kg/ha): 9.0; herbicidal effect rating ORYSAT ([6]; Rate 0.0320 kg/ha): 0.0; herbicidal effect rating ORYSAT ([6]; Rate 0.0620 kg/ha): 1.0; herbicidal effect rating ORYSAT ([6]; Rate 0.1250 kg/ha): 1.0; herbicidal effect rating ORYSAT ([6]; Rate 0.2500 kg/ha): 1.0; herbicidal effect rating ORYSAT ([6]; Rate 0.5000 kg/ha): 5.0
